How the values were obtained:
[1] = target: T1, AT1 receptor (Rattus norvegicus, UniProt P25095); assay: Inhibition of [125I]Sar1,Ile8-angiotensin II binding in rat liver membranes; conditions: for IC50: rat liver membranes
T1 construct: from tissue; host or cells: rat liver membranes
T1 sequence (P25095 1-359): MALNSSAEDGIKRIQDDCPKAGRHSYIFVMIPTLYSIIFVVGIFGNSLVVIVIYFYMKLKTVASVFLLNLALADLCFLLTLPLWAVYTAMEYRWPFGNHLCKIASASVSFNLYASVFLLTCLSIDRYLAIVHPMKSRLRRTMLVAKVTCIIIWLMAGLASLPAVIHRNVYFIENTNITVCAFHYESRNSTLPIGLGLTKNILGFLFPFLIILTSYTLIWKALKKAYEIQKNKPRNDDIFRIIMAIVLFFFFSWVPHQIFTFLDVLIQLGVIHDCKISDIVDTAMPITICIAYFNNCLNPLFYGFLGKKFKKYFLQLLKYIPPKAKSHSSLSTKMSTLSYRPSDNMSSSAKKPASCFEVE
Experimental: Antagonist activity at the AT1 receptor on the part of compounds provided by the invention was assessed as the capacity to inhibit binding of the specific AII agonist to rat liver membranes. The method described by R. S. L. Chang et al., [JPET (1992), 262, 133-38] and M. J. Robertson et al., [Br. J. Pharmacol. (1992), 107, 1173-1180] was used with slight modifications. The concentration of radioligand [[…]]-Sar1, Ile^8-angiotensin II used was 25 pM with a membrane content corresponding to a protein concentration of approx. 25 μg of protein per sample; the incubation time was 180 minutes at 25° C. Separation of the bound from the free was carried out by rapid filtration on GFB Millipore glass fibre filters.

[2] = system: TC7 cell monolayer; assay: in vitro; conditions: human, Caco-2, 50 μM
Experimental: (§1) Gres et al. Pharm.; Res. 15 (1998), pages 726-733].
(§2) A→B permeability was thus assessed, namely the apparent permeability coefficient (Papp), of the compounds under investigation, tested at a concentration of 50 μM with an incubation time of 60 minutes, in the apical-to-basolateral direction. B→A permeability is reversely assessed, i.e. in a basolateral-to-apical direction, with an incubation time of 40 minutes.

[3] = in vitro; conditions: human, Caco-2
Experimental: as §1, §2

[4] = system: renally hypertensive rat (RHR); assay: Reduction in systolic arterial pressure in the RHR rat after I.P. administration; assay type: in vivo; conditions: for Max. effect at 15 mg/kg (% reduction vs. basal): 0-120 min, systolic pressure; for ED15 (0-120 min): sodium salts, doses 5-20 mg/kg, dose giving 15% reduction in average basal systolic pressure, NC = not calculable, effect < 10% at all doses
[5] = system: spontaneously hypertensive rat (SHR); assay: Reduction in systolic arterial pressure in the SHR rat after I.P. administration; assay type: in vivo; conditions: for Max. effect at 15 mg/kg (% reduction vs. basal): 0-120 min, systolic pressure; for ED15 (0-120 min): sodium salts, doses 5-20 mg/kg, dose giving 15% reduction in average basal systolic pressure, NC = not calculable, effect < 10% at all doses
[6] = displacement of 25 pM [125I]-Sar1,Ile8-angiotensin II, 180 min at 25° C.

**Q.** Which melting point does the source give for `CCCCc1cc(CC(C)C)c(C=O)n1Cc1ccc(-c2ccccc2-c2nnn[nH]2)cc1` [Compound 1, 5-n-Butyl-1-[2′-(1H-tetrazol-5-yl)biphenyl-4-yl-methyl]-3-[3-(2-methyl)propyl]-2-pyrrolaldehyde] here?
**A.** 148 °C

**Q.** What about the “times more potent than the BPT-pyrrole derivative of EP-0323841” value ([1]; 8.9 nM vs. 1.6 μM of compound 277 of EP 0 323 841) of the same compound?
**A.** approx. 200 times

**Q.** And the IC50 ([1]; AT1 binding)?
**A.** 8.9 nM

**Q.** What about the “times less potent than valsartan and eprosartan in vitro” value ([1]; respectively vs. valsartan and eprosartan) of the same compound?
**A.** approx. ⅗

**Q.** What about the “Ratio (1/2)” value [2] of the same compound?
**A.** 8.2

**Q.** And the Papp A→B at 60 min, 50 μM [3]?
**A.** 27.9 ×10⁻⁶ cm/s

**Q.** What about the Papp B→A at 40 min, 50 μM [3] of the same compound?
**A.** 3.4 ×10⁻⁶ cm/s

**Q.** And the “Max. effect at 15 mg/kg (% reduction vs. basal)” value [4]?
**A.** 22.1 % reduction vs. basal

**Q.** And the “ED15 (0-120 min)” value [4]?
**A.** 12.6 mg/kg

**Q.** What about the “Max. effect at 15 mg/kg (% reduction vs. basal)” value [5] of the same compound?
**A.** 16.0 % reduction vs. basal

**Q.** And the “ED15 (0-120 min)” value [5]?
**A.** 17.4 mg/kg

**Q.** Which melting point does the source give for `CCCc1ccc(C=O)n1Cc1ccc(-c2ccccc2-c2nnn[nH]2)cc1` [Compound 2, 5-n-Propyl-1-[2′-(1H-tetrazol-5-yl)biphenyl-4-yl-methyl]-2-pyrrolaldehyde] here?
**A.** 104 °C

**Q.** And the IC50 [1, 6]?
**A.** 72.5 nM

**Q.** Which results are given for `CCCc1c(Br)cc(C=O)n1Cc1ccc(-c2ccccc2-c2nnn[nH]2)cc1` [Compound 3, 4-Bromo-5-n-propyl-1-[2′-(1H-tetrazol-5-yl)biphenyl-4-yl-methyl]-2-pyrrolaldehyde]?
**A.** melting point: 167 °C; IC50 [1, 6]: 1050 nM

**Q.** Which results are given for `CCCc1c(Cl)cc(C=O)n1Cc1ccc(-c2ccccc2-c2nnn[nH]2)cc1` [Compound 4, 4-Chloro-5-n-propyl-1-[2′-(1H-tetrazol-5-yl)biphenyl-4-yl-methyl]-2-pyrrolaldehyde]?
**A.** melting point: 150 °C; IC50 [1, 6]: 615 nM

**Q.** Which melting point does the source give for `CCCc1cc(C(C)C)c(C=O)n1Cc1ccc(-c2ccccc2-c2nnn[nH]2)cc1` [Compound 5, 5-n-Propyl-3-isopropyl-1-[2′-(1H-tetrazol-5-yl)biphenyl-4-yl-methyl]-2-pyrrolaldehyde] here?
**A.** 180 °C

**Q.** And the IC50 [1, 6]?
**A.** 35.7 nM

**Q.** Which melting point does the source give for `CCCCc1cc(C(C)C)c(C=O)n1Cc1ccc(-c2ccccc2-c2nnn[nH]2)cc1` [Compound 6, 5-n-Butyl-3-isopropyl-1-[2′-(1H-tetrazol-5-yl)biphenyl-4-yl-methyl]-2-pyrrolaldehyde] here?
**A.** 174 °C

**Q.** What about the IC50 [1, 6] of the same compound?
**A.** 15.3 nM

**Q.** What about the “Ratio (1/2)” value [2] of the same compound?
**A.** 15.4

**Q.** What about the Papp A→B at 60 min, 50 μM [3] of the same compound?
**A.** 15.4 ×10⁻⁶ cm/s

**Q.** And the Papp B→A at 40 min, 50 μM [3]?
**A.** 1 ×10⁻⁶ cm/s

**Q.** And the “Max. effect at 15 mg/kg (% reduction vs. basal)” value [4]?
**A.** 18.7 % reduction vs. basal

**Q.** And the “ED15 (0-120 min)” value [4]?
**A.** 16.0 mg/kg

**Q.** And the “Max. effect at 15 mg/kg (% reduction vs. basal)” value [5]?
**A.** 13.2 % reduction vs. basal

**Q.** What about the “ED15 (0-120 min)” value [5] of the same compound?
**A.** 19.3 mg/kg

**Q.** Which melting point does the source give for `CCCCc1ccc(C=O)n1Cc1ccc(-c2ccccc2-c2nnn[nH]2)cc1` [Compound 7, 5-n-Butyl-1-[2′-(1H-tetrazol-5-yl)biphenyl-4-yl-methyl]-2-pyrrolaldehyde] here?
**A.** 129 °C

**Q.** What about the IC50 [1, 6] of the same compound?
**A.** 66.5 nM

**Q.** Which results are given for `CCCCCc1cc(C(C)C)c(C=O)n1Cc1ccc(-c2ccccc2-c2nnn[nH]2)cc1` [Compound 8, 5-n-Pentyl-3-isopropyl-1-[2′-(1H-tetrazol-5-yl)biphenyl-4-yl-methyl]-2-pyrrolaldehyde]?
**A.** melting point: 144 °C; IC50 [1, 6]: 105 nM

**Q.** With `CC(C)CCc1cc(C(C)C)c(C=O)n1Cc1ccc(-c2ccccc2-c2nnn[nH]2)cc1` [Compound 9, 5-[(3-Methyl)butyl]-3-isopropyl-1-[2′-(1H-tetrazol-5-yl)biphenyl-4-yl-methyl]-2-pyrrolaldehyde] as the compound, how does the melting point read?
**A.** 144 °C

**Q.** And the IC50 [1, 6]?
**A.** 37.2 nM

**Q.** What does the source list for `CCCc1ccc(C(=O)O)n1Cc1ccc(-c2ccccc2-c2nnn[nH]2)cc1` [Compound 10, 5-n-Propyl-1-[2′-(1H-tetrazol-5-yl)biphenyl-4-yl-methyl]-2-pyrrolecarboxylic acid]?
**A.** melting point: 134 °C; IC50 [1, 6]: 475 nM

**Q.** Which results are given for `CCCc1cc(C(C)C)c(C(=O)O)n1Cc1ccc(-c2ccccc2-c2nnn[nH]2)cc1` [Compound 11, 5-n-Propyl-3-isopropyl-1-[2′-(1H-tetrazol-5-yl)biphenyl-4-yl-methyl]-2-pyrrolecarboxylic acid]?
**A.** melting point: 170 °C; IC50 [1, 6]: 106 nM

**Q.** For `CCCCc1ccc(C(=O)O)n1Cc1ccc(-c2ccccc2-c2nnn[nH]2)cc1` [Compound 12, 5-n-Butyl-1-[2′-(1H-tetrazol-5-yl)biphenyl-4-yl-methyl]-2-pyrrolecarboxylic acid], which melting point is on record?
**A.** 142 °C

**Q.** And the IC50 [1, 6]?
**A.** 268 nM

**Q.** With `CCCc1ccc(CO)n1Cc1ccc(-c2ccccc2-c2nnn[nH]2)cc1` [Compound 13] as the compound, how does the IC50 [1, 6] read?
**A.** 444 nM

**Q.** Which results are given for `Cc1ccc(C)n1Cc1ccc(-c2ccccc2-c2nnn[nH]2)cc1` [Compound 14, 2,5-Dimethyl-1-[2′-(1H-tetrazol-5-yl)biphenyl-4-yl-methyl]pyrrole]?
**A.** melting point: 107 °C; IC50 [1, 6]: 10700 nM

**Q.** For `CCCc1cc(C(C)C)c(C)n1Cc1ccc(-c2ccccc2-c2nnn[nH]2)cc1` [Compound 15, 2-Methyl-5-n-propyl-3-isopropyl-1-[2′-(1H-tetrazol-5-yl)biphenyl-4-yl-methyl]pyrrole], which melting point is on record?
**A.** 160 °C

**Q.** And the IC50 [1, 6]?
**A.** 1190 nM

**Q.** With `CCCCc1ncc(/C=C(\Cc2cccs2)C(=O)O)n1Cc1ccc(C(=O)O)cc1` [Eprosartan, eprosartan, reference compound] as the compound, how does the Papp A→B at 60 min, 50 μM [3] read?
**A.** 0.1 ×10⁻⁶ cm/s

**Q.** What about the Papp B→A at 40 min, 50 μM [3] of the same compound?
**A.** 0.4 ×10⁻⁶ cm/s

**Q.** And the “Max. effect at 15 mg/kg (% reduction vs. basal)” value [4]?
**A.** 9.2 % reduction vs. basal

**Q.** What about the “Max. effect at 15 mg/kg (% reduction vs. basal)” value [5] of the same compound?
**A.** 5.0 % reduction vs. basal

**Q.** With `CCCCc1nc(Cl)c(CO)n1Cc1ccc(-c2ccccc2-c2nn[nH]n2)cc1` [Losartan, losartan] as the compound, how does the “Max. effect at 15 mg/kg (% reduction vs. basal)” value [4] read?
**A.** 18.9 % reduction vs. basal

**Q.** And the “ED15 (0-120 min)” value [4]?
**A.** 16.4 mg/kg

**Q.** What about the “Max. effect at 15 mg/kg (% reduction vs. basal)” value [5] of the same compound?
**A.** 12.0 % reduction vs. basal

**Q.** What about the “ED15 (0-120 min)” value [5] of the same compound?
**A.** 25.4 mg/kg

**Q.** Which results are given for `CCCCC(=O)N(Cc1ccc(-c2ccccc2-c2nnn[nH]2)cc1)[C@H](C(=O)O)C(C)C` [Valsartan, valsartan, reference compound]?
**A.** IC50 [1, 6]: 3.4 nM; Ratio (1/2) [2]: 1.0; Papp A→B at 60 min, 50 μM [3]: 0.2 ×10⁻⁶ cm/s; Papp B→A at 40 min, 50 μM [3]: 0.2 ×10⁻⁶ cm/s; Max. effect at 15 mg/kg (% reduction vs. basal) [4]: 19.0 % reduction vs. basal; ED15 (0-120 min) [4]: 16.0 mg/kg; Max. effect at 15 mg/kg (% reduction vs. basal) [5]: 14.4 % reduction vs. basal; ED15 (0-120 min) [5]: 26.2 mg/kg
